Measured values as given in patent US9119808B1, “Treating neurodegenerative diseases with GGA or a derivative thereof” (COYOTE PHARMACEUTICALS, INC., priority 2012, dated 2015).

Tests used:
rat hippocampal neurons = assay: Rat neuroprotection model, kainic acid induced excitotoxic neuron loss in hippocampus (Assay 3); assay type: in vivo; details: for Rat Neuroprotection, % Protection: kainic acid rat model, 2 or 20 mg/kg
Experimental: Excitotoxicity has been considered as one of the major causes for neuron loss in ALS. A probable cause for excitotoxic neuron death is excess glutamate around the synapses, due to impaired glutamate reuptake capabilities. Intra-cerebral infusion of kainic acid is a well-established and robust model for excitotoxic neuron death that has been used to investigate excitotoxicity for over fifty years. Compounds are tested, e.g., at two concentrations and compare to a vehicle control in a model that quantifies neuron loss in the CA3 area of the hippocampus. Such tests can evaluate blood brain barrier penetration and select compounds that provide neuroprotection from excitotoxic damage.
(§1) The overall strategy, therefore, is to use a sequence of assays, each of which is targeted to address a specific aspect of the disease with the goal of identifying candidates having multiple therapeutic capabilities. These assays are chosen such that a failure to perform at any stage is expected to be fatal to the candidate's suitability as a viable ALS treatment. To this end, the following four therapeutic capabilities and corresponding assays were chosen as shown in the list below. The advancement criteria, as well as assay design where relevant, are also presented. • 1. In some embodiments, the candidates increase HSP70 expression in target cells. The initial screen (pass/fail, Assay 1a) and quantitative evaluation (EC50, Assay 1b) of candidates will use a HSP70 expression assay by Western blot on cellular extracts of treated Neuro2A cells. The screen, Assay 1a, is conducted at a single concentration, requiring a specific level of activity to pass into Assay 1b, the quantitative dose/response determination of the EC50. Only those candidates having an ECK, below 10 nM would be promoted to Assay 2. • 2. In some embodiments, the candidates increase neuronal cell health/growth in the presence of specific inhibitors of GGTase I. The ability of candidates to promote neurite extension will be measured on Neuro2A cells to model whole-cell activities important to synaptic connections and neuronal function. Candidates showing >200 cells with outgrowth would be promoted to Assay 3. • 3. In some embodiments, the candidates provide protection to nerve tissue from excitotoxins. Neuroprotection afforded by candidates that have passed the first two assays will be determined on rat hippocampal neurons facing kainic acid induced damage. This is the final animal model before the ALS disease model and candidates that provide >50% protection would be tested in the disease model. • 4. In some embodiments, the candidates increase median survival time by 25% and improve neurological performance compared to control. This confirmation will be determined in the SOD1 mouse model.

Water solubility = assay type: physicochemical
From the text: The chemical structure of CNS-102 is shown. We have characterized CNS-102 (MW 330) by ^1H NMR, LC, and ESI mass spectrometry and no evidence of cis isomer was found. […] Such can enable CNS-102 to cross the blood brain barrier.

SOD1 mouse model of ALS = assay: SOD1 mouse model of ALS: survival and cat-walk gait (Assay 4); assay type: in vivo; details: for Run Duration, CNS-102-vehicle difference of averages / Stride Length, CNS-102-vehicle difference of averages / Swing Speed, CNS-102-vehicle difference of averages: cat-walk
Experimental: Analyses were conducted using PROC LIFEREG in SAS.
Additionally, three neurological function outcomes were chosen for analysis from those measured on a ‘cat-walk’ at irregular intervals over the duration of the study; stride length (cm), run duration (s), and swing speed (cm/s).
This non-random censoring of the treatment group data precluded using standard comparative statistical methods such as the t-test due the unverifiable compliance of the remaining data with required statistical test assumptions. Consequently, a Monte Carlo estimate of the p-value of the treatment differences was constructed using the bootstrap method.
Survival studies and behavioral tests will be performed in the SOD1 G93A model of ALS. This transgenic mouse harbors a point mutation (G93A), found in familial ALS, in the gene encoding for superoxide dismutase 1 (SOD1). This very well characterized mouse model is widely used in ALS research. […] Motor neuron death in the ventral horn of the spinal cord and loss of myelinated axons in the ventral motor roots lead to paralysis and muscle wasting. Mice initially develop normally and gain weight until approximately 100 days of age. At this point, weight loss (which is usually defined as the onset of disease), muscle weakness, and gradual paralysis start at the hind limbs and muscle wasting start to appear. […] This means that drug efficacy studies using this model can be performed within a relatively short time frame of 4-5 months. To rigorously test the efficacy of candidates in this mouse model, neurological scores are monitored, and motor scores, life span, body weight and mice tested in a battery of behavioral paradigms suitable for motor assessment.

GGTase I = GGTase I (Homo sapiens, UniProt P53609); assay: GGTase I activity detected by fluorescent peptide dansyl-GCVLL; assay type: biochemical
[1] = Bioavailability and brain penetration; details: in vivo
[2] = test system: neuro2A neuroblastoma cell lines; assay: Neurite outgrowth in Neuro2A cells challenged with GGTase I inhibitor GGTI-298 (Assay 2); assay type: cell-based, murine; details: @ 10 nM, GGTI-298 challenge
Experimental: Neurite outgrowth in neuro2A neuroblastoma cell lines has been widely used as a cellular model for compounds screening in the CNS drug discovery and research. IN some embodiments, the effects of CNS-102 analogs on neurite outgrowth is determined. Cells will be pre-treated with candidates and then subjected to a challenge with GGTase I inhibitor GGTI-298. Retinoic Acid will be added to start the differentiation of these cells. This will identify analogs that protect neurite outgrowth, which is known to be important for establishing synaptic connections and neuronal functions. This assay has a Z factor of 0.4 and a CV of 11% for CNS-102 at 10 nM to 1 μM.
as §1

[3] = test system: HSP70 expression in Neuro2A cells; assay: HSP70 expression by Western blot in treated Neuro2A cells (Assay 1a/1b); assay type: cell-based, murine; details: for HSP70 Expression, HSP70 by Western Blot: Neuro2A cells, Assay 1a screen at 1 μM
Experimental: HSP70 expression in neuro2A cells treated with CNS-102 analogs are examined, using Western blot analysis. An increased expression of HSP70 will indicate the candidate molecule has the prerequisite activity. This assay has a Z factor of […] and a CV of 11% for CNS-102 at 1 nM to 100 nM.
A preliminary screen and quantitative performance evaluation, and a confirmatory neuroprotective assay are developed from a model of motor neuron dysfunction in a PNS cell line.
as §1, with “Candidates showing >200 cells with outgrowth would be promoted to Assay 3. • 3. In some embodiments, the candidates provide protection to nerve tissue from excitotoxins.” left out, “This is the final animal model before the ALS disease model and candidates that provide >50% protection would be tested in the disease model. • 4. In some embodiments, the candidates increase median survival time by 25% and improve neurological performance compared to control.” left out

SOD1 G93A = details: pre-symptomatic administration or treatment at disease onset; cited from earlier work
cultured spinal neurons = details: low concentration (1 nM-100 nM); cited from earlier work

With CC(=O)CC/C=C(\C)CC/C=C(\C)CC/C=C(\C)CCC=C(C)C [CNS-102, 5E,9E,13E-geranylgeranylacetone] the “time of peak protection” value (rat hippocampal neurons; hippocampus, locally injected kainic acid, following a single oral dose) was 72 h, the “Rat Neuroprotection, % Protection” value (rat hippocampal neurons) was 40% and the “expression of HSPs” value (rat hippocampal neurons; rat kainic acid induced neurotoxicity model, HSP70 in hippocampus and cerebral cortex, HSP60, HSP70, HSP90 upregulated) was “increases expression of HSPs”. For the same compound, the intrinsic water solubility (Water solubility) was “little intrinsic water solubility”, the “SOD1 Mouse Model, Survival and clinical scores: increase in survival” value (SOD1 mouse model of ALS; SOD1 mouse model) was 9% increase and the “Increase over vehicle (median survival time)” value (SOD1 mouse model of ALS; SOD1 mouse model, daily treatments, N=16/treatment) was 9%. For the same compound, the “improvement in median survival, CNS-102 outperformed riluzole by” value (SOD1 mouse model of ALS; SOD1 mouse model, difference between drug groups not statistically significant at p=0.05) was 50%, the “Run Duration, CNS-102-vehicle difference of averages” value (SOD1 mouse model of ALS; age P120 ± 1) was -1.68 s and the “Stride Length, CNS-102-vehicle difference of averages” value (SOD1 mouse model of ALS; age P120 ± 1) was 1.46 cm. The “Swing Speed, CNS-102-vehicle difference of averages” value (SOD1 mouse model of ALS; age P120 ± 1) was 14.58 cm/s, the “Run Duration, CNS-102-vehicle difference of averages” value (SOD1 mouse model of ALS; age P124 ± 3) was -1.49 s and the “Stride Length, CNS-102-vehicle difference of averages” value (SOD1 mouse model of ALS; age P124 ± 3) was 1.87 cm. The “Swing Speed, CNS-102-vehicle difference of averages” value (SOD1 mouse model of ALS; age P124 ± 3) was 11.70 cm/s, the “GGTase I activity” value (GGTase I) was “modulates GGTase I activity” and the “bioavailability and brain penetration” value [1] was “excellent”. The “Neurite Outgrowth, Cell count relative to negative control” value [2] was 2.00 and the “expression of HSPs” value ([3]; murine Neuro2A cells, HSP70 and HSP90 found) was “increases expression of HSPs”.

In the case of CC/C(=C\CCC(=O)C12CC3CC(CC(C3)C1)C2)CC/C=C(\C)CC/C=C(\C)CCC=C(C)C [CNS-G001], the “Rat Neuroprotection, % Protection” value (rat hippocampal neurons) was 37%, the “Neurite Outgrowth, Cell count relative to negative control” value [2] was 1.79 and the “HSP70 Expression, HSP70 by Western Blot” value [3] was 2.00 × PBS.

In the case of CCCCCNC(=O)OC(C)CC/C=C(\C)CC/C=C(\C)CCC=C(C)C (stereo not drawn) [CNS-G002], the “Neurite Outgrowth, Cell count relative to negative control” value [2] was 1.79.

In the case of CC(=O)CC/C=C(\C)CC/C=C(\C)CC/C=C(\C)CC/C=C(\C)CCC=C(C)C [CNS-G003], the “Rat Neuroprotection, % Protection” value (rat hippocampal neurons) was 82% and the “Neurite Outgrowth, Cell count relative to negative control” value [2] was 2.74.

In the case of CC(C)=CCC/C(C)=C/CC/C(C)=C/CC/C(C)=C/COC(=O)C1CCCCC1 [CNS-G004], the “Rat Neuroprotection, % Protection” value (rat hippocampal neurons) was 76% and the “Neurite Outgrowth, Cell count relative to negative control” value [2] was 2.61.

With CC(C)=CCC/C(C)=C/CC/C(C)=C/CC/C(C)=C/CC1CCCCC1=O (stereo not drawn) [CNS-G005] the “Rat Neuroprotection, % Protection” value (rat hippocampal neurons) was 83%, the “Neurite Outgrowth, Cell count relative to negative control” value [2] was 2.28 and the “HSP70 Expression, HSP70 by Western Blot” value [3] was 2.78 × PBS.

For [O-][n+]1cccc(/C(Cl)=N/OC[C@H](O)CN2CCCCC2)c1 [arimoclomol], the “extension of life span” value (SOD1 G93A) is listed as “approximately 5 weeks”.

For geranylgeranyl acetone [GGA], the “proteasome inhibitor induced neurotoxicity” value (cultured spinal neurons) is given as “reduce proteasome inhibitor induced neurotoxicity”.
